We go through four compounds from article PMC3080343, “Small lytic peptides escape the inhibitory effect of heparan sulfate on the surface of cancer cells” (BMC Cancer, 2011).

The test system of one data set is CHO-K1 cells. It is filed as cell-based, Chinese hamster. The procedure: (§1) The colorimetric MTT viability assay was used to investigate the cytotoxic effect of the peptides. The HT-29, MT-1, Kelly, HUVEC and MRC-5 cells were seeded at a concentration of 2 × 10^5 cells/ml, 1.5 × 10^5 cells/ml, 2 × 10^5 cells/ml, 1 × 10^5 cells/ml and 1 × 10^5 cells/ml in a volume of 0.1 ml in 96-well plates, respectively. CHO-K1 and pgsA-745 cells were seeded at a concentration of 1 × 10^5 cells/ml. The cells were allowed to adhere overnight in complete medium. Before adding different concentrations of the peptides (10-500 μg/ml) to the cells, the culture medium was removed and the cells were washed twice in serum-free culture medium. The non-adherent lymphoma cell lines were seeded at a density of 4 × 10^5 cells/ml using serum-free medium. After incubating the cells with peptides for 30 minutes at 37°C, 0.5 mg MTT-solution was added to each well and the incubation was continued for 2 hours. A volume of 70 μl or 130 μl per well was removed from the non-adherent and adherent cells, respectively. In order to dissolve the formazan crystals, 100 μl of 0.04 M HCl in isopropanol was added and the plates were shaken for 1 hour on a Thermolyne Roto Mix (Dubuque, IA) at room temperature. The optical density was measured on a microplate reader (VERSAmax™ Molecular Devices, CA). Cells treated with 1% Triton X-100 in serum-free medium was used as positive control for 100% cell death, whereas cells in serum free medium were used as negative control. Cell survival was determined from the ΔA590 nm relative to the negative control (100% living cells) and expressed as 50% inhibitory concentration (IC50).
In order to investigate whether soluble CS or HS would interfere with the cytotoxic activity, the peptides were added to cultures of CHO-K1 cells together with exogenous CS and HS. […] The cytotoxic activity of LTX-318 was not inhibited in the presence of soluble CS or HS (Figure 5c).

A further data set relates to U-266. It is filed as cell-based. The conditions noted are these: 2 h. On the procedure: as §1
A further data set has as its system HT-29. Type of data set: cell-based. Particulars: 2 h. On the procedure:
as §1

A further data set concerns KMM-1. It is filed as cell-based. The conditions noted are these: 2 h. On the procedure: as §1
In another data set the test system is Sudhl-4. It is filed as cell-based. Particulars: 2 h. On the procedure:
as §1

The subject of the next data set is MT-1. Type of data set: cell-based. Particulars: 2 h. On the procedure: as §1
For a further data set, the system named is Ramos. Type of data set: cell-based. The conditions noted are these: 2 h. On the procedure: as §1
The subject of the next data set is lymphoma cells. Type of data set: cell-based. The conditions noted are these: 2 h. On the procedure:
as §1

For another data set, the system named is Kelly. It is filed as cell-based. The conditions noted are these: for IC50: 2 h. On the procedure: as §1
The subject of the next data set is KMS-5. It is filed as cell-based. The conditions noted are these: 2 h. The procedure: as §1
The next data set relates to CHO-K1. It is filed as cell-based, Chinese hamster. Particulars: 2 h. On the procedure: as §1
Another data set concerns pgsA-745. Type of data set: cell-based, Chinese hamster. The conditions noted are these: for IC50: 2 h. On the procedure: as §1
Data set [1] is described as follows: Affinity chromatography on CS-Sepharose. Type of data set: binding. Particulars: NaCl needed to elute peptide from CS-Sepharose; mean of four experiments. The procedure:
(§2) Two different Sepharose affinity columns were prepared, using HS and CS as ligands. The ligands were mixed with swollen CNBr-activated Sepharose 4B. Non-reactive groups were blocked with 0.1 M Tris-HCl, pH 8.0 and the gel was washed before packing. The peptides were dissolved in 5 mM phosphate-buffer, pH 7.4 at a concentration of 0.5 mg/ml, and 50 μl samples were applied. A gradient of NaCl was used to elute the different peptides from the columns using a GradiFrac from Amersham Pharmacia Biotech (Uppsala, Sweden) at a flow rate of 1.0 ml/min. The peptides were detected using a monitor UV-1 from Amershan Pharmacia Biotech (Uppsala, Sweden).

For data set [2], the system named is carcinoma cell lines HT-29 and MT-1. The experiment in a line: MTT viability assay, carcinoma cell lines HT-29 and MT-1. Type of data set: cell-based. Particulars: selectivity versus HUVEC and MRC-5. The procedure:
as §1, with “Cells treated with 1% Triton X-100 in serum-free medium was used as positive control for 100% cell death, whereas cells in serum free medium were used as negative control. Cell survival was determined from the ΔA590 nm relative to the negative control (100% living cells) and expressed as 50% inhibitory concentration (IC50).” left out
A general note: Formazan colour is commonly taken as a measure of viable cells.

Data set [3] is described as follows: Affinity chromatography on HS-Sepharose. Type of data set: binding. The conditions noted are these: NaCl needed to elute peptide from HS-Sepharose; mean of four experiments. On the procedure: as §2
A further data set deals with tumor. The arrangement: method as in PMID 20422410. The conditions noted are these: cited from earlier work.
Data set [4] deals with human red blood cells (RBC). It is filed as cell-based. Particulars: red cells of human, 1 h. The procedure:
The hemolytic activity of the peptides was determined using freshly isolated human red blood cells (RBC) as previously described. Briefly, venous blood was collected, transferred to a tube containing heparin (10 U/ml) and centrifuged at 1500 rpm for 10 minutes in order to isolate the red blood cells. The red blood cells were washed three times with PBS (35 mM phosphate buffer with 150 mM NaCl, pH 7.4) by centrifugation at 1500 rpm for 10 minutes, and adjusted to 10% hematocrit with PBS. Peptide solutions were added to yield a final concentration range of the peptide from 1000 μg/ml to 1 μg/ml and a red blood cell concentration of 1%. The resulting suspension was incubated with agitation for 1 hour at 37°C. After incubation the suspension was centrifuged at 4000 rpm for 5 minutes, and the released hemoglobin were monitored by measuring the absorbance of the supernatant at 405 nm on a microplate reader (VERSAmax™ Molecular Devices, CA). PBS and 1% Triton X-100 were used as negative and positive controls, respectively. Peptide concentrations corresponding to 50% hemolysis (EC50) were determined from dose-response curves.

The next data set concerns HUVEC. Type of data set: cell-based, human. Particulars: 2 h. The procedure: as §1
The nature of data set [5]: MTT viability assay, MRC-5 fibroblast-like cells. Type of data set: cell-based. Particulars: human. The procedure: as §1
Another data set concerns MRC-5. The experiment in a line: MTT viability assay, MRC-5 fibroblast-like cells. Type of data set: cell-based. Particulars: 2 h. On the procedure:
as §1

Data set [6] has as its system human red blood cells (RBC). The arrangement: method as in Eliassen et al. [69]. The conditions noted are these: hemolysis; ref Eliassen et al. [69]; cited from earlier work.

Like-named read-outs stand apart in the source and are kept apart here. Where a SMILES comes first, the peptide text is derived from it. [ ]: non-standard residue; d: D form. Dip = N[C@H](C(=O)O)C(c1ccccc1)c1ccccc1; Orn = NCCC[C@H](N)C(=O)O

For `NCCCC[C@H](NC(=O)[C@H](Cc1c[nH]c2ccccc12)NC(=O)[C@H](CCCCN)NC(=O)[C@H](CCCCN)NC(=O)[C@@H](NC(=O)[C@H](Cc1c[nH]c2ccccc12)NC(=O)[C@H](CCCCN)NC(=O)[C@H](CCCCN)NC(=O)[C@@H](N)Cc1c[nH]c2ccccc12)C(c1ccccc1)c1ccccc1)C(N)=O` [LTX-302, WKKWDipKKWK-NH2] (H-WKKW[Dip]KKWK-NH2; N-terminus assumed), the “inhibitory effect of soluble CS and HS on cytotoxic activity” value in the data set on CHO-K1 cells is given as “only a negligible inhibitory effect”. The “inhibitory effect of soluble HS on cytotoxic activity compared to CS” value in the data set on CHO-K1 cells is recorded as “much higher inhibitory effect”. The IC50 (usually the point on the concentration scale where inhibition reaches its midpoint) with U-266 came to 36 ± 6 µM; with HT-29, 75 ± 5 µM; in the data set on KMM-1, 40 ± 6 µM; in the data set with Sudhl-4 it was 46 ± 6 µM; with MT-1, 73 ± 2 µM; in the data set on Ramos it was 30 ± 2 µM. Also, the IC50 was 31 to 46 µM in the data set with lymphoma cells; 28 µM with Kelly; 31 µM in the data set on KMS-5; 42 ± 7 µM in the data set on CHO-K1; 54 ± 2 µM with pgsA-745; above 695 µM in [4]. Also, in the data set with HUVEC, the concentration for half-maximal inhibition (IC50) worked out at 123 ± 9 µM. Also, the “fold higher activity against neuroblastoma cell line in comparison to endothelial and fibroblast cells” value with Kelly (selectivity versus HUVEC and MRC-5) is listed as ~ 4.5 fold. Besides, in the data set with pgsA-745, the “Ratio (IC50) pgsA-745/CHO-K1” value is 1.28. For the same compound, the “Elution concentration from CS” value in data set [1] is reported as 187 ± 13 mM NaCl. In addition, the “fold higher activity against carcinoma cell lines in comparison to endothelial and fibroblast cells” value in data set [2] is listed as ~ 2 fold. For the same compound, the “Elution concentration from HS” value in data set [3] is 330 ± 9 mM NaCl. Moreover, the “tumor response after intratumoral injection” value with tumor is “complete regression of the tumor”. The compound also registered an IC50 at 30 min in data set [5] of 126 ± 11 µM.

In the case of `NCCCC[C@H](NC(=O)[C@@H](NC(=O)[C@H](Cc1c[nH]c2ccccc12)NC(=O)[C@H](CCCCN)NC(=O)[C@H](CCCCN)NC(=O)[C@H](Cc1c[nH]c2ccccc12)NC(=O)[C@H](Cc1c[nH]c2ccccc12)NC(=O)[C@H](CCCCN)NC(=O)[C@@H](N)CCCCN)C(c1ccccc1)c1ccccc1)C(N)=O` [LTX-315, KKWWKKWDipK-NH2] (H-KKWWKKW[Dip]K-NH2), in the data set with CHO-K1 cells, the “inhibitory effect of soluble CS and HS on cytotoxic activity” value is listed as “only a negligible inhibitory effect”. The “inhibitory effect of soluble HS on cytotoxic activity compared to CS” value in the data set on CHO-K1 cells is reported as “much higher inhibitory effect”. In addition, the IC50 with U-266 came to 13 ± 1.5 µM; in the data set with HT-29 it was 38 ± 3 µM; in the data set on KMM-1 it was 17 ± 2 µM; in the data set on Sudhl-4 it was 23 ± 2 µM; in the data set with MT-1 it was 31 ± 3 µM; in the data set on Ramos, 10 ± 1.7 µM. Also, the IC50 was 10 to 23 µM in the data set on lymphoma cells; 14 ± 1 µM in the data set on Kelly; 10 ± 1.5 µM with KMS-5; 22 ± 5 µM with CHO-K1; 22 ± 3 µM in the data set on pgsA-745; above 695 µM in data set [4]. This compound also gave an IC50 in the data set with HUVEC of 28 ± 1 µM. Moreover, in data set [4], the “EC50 (50% hemolysis)” value was above 1000 µg/mL. This compound also showed an IC50 at 30 min in [5] of 41 ± 3 µM.

`NCCC[C@H](NC(=O)[C@H](Cc1c[nH]c2ccccc12)NC(=O)[C@H](Cc1c[nH]c2ccccc12)NC(=O)[C@H](CCCN)NC(=O)[C@H](CCCN)NC(=O)[C@@H](NC(=O)[C@H](Cc1c[nH]c2ccccc12)NC(=O)[C@H](CCCN)NC(=O)[C@@H](N)CCCN)C(c1ccccc1)c1ccccc1)C(N)=O` [LTX-318, OOWDipOOWWO-NH2] (H-[Orn][Orn]W[Dip][Orn][Orn]WW[Orn]-NH2): the “cytotoxic activity in the presence of soluble CS or HS” value in the data set on CHO-K1 cells was “not inhibited”. Also, the IC50 is 106 ± 17 µM with U-266; 248 ± 5 µM in the data set on HT-29; 111 ± 1 µM in the data set on KMM-1; 110 ± 5 µM in the data set on Sudhl-4; 216 ± 36 µM with MT-1; 82 ± 11 µM in the data set with Ramos. The IC50 in the data set on lymphoma cells is 73 to 106 µM; in the data set with Kelly it was 78 ± 7 µM; in the data set with KMS-5, 73 ± 5 µM; in the data set with CHO-K1, 145 ± 6 µM; in the data set with pgsA-745, 176 ± 3 µM; in data set [4], above 695 µM. The compound further returned an IC50 in the data set with HUVEC above 347 µM. Further, the “IC50 against endothelial cells (no IC50 value at the highest concentration tested)” value in the data set with HUVEC is above 500 µg/mL. The “IC50 against fibroblast cells (no IC50 value at the highest concentration tested)” value in the data set with MRC-5 is above 500 µg/mL. The IC50 at 30 min in data set [5] is above 347 µM.

In the case of `CC[C@H](C)[C@@H]1NC(=O)[C@H](CO)NC(=O)[C@@H]2CCCN2C(=O)[C@H](C)NC(=O)CNC(=O)[C@H](CC(C)C)NC(=O)[C@H](CCCCN)NC(=O)[C@H](CCCCN)NC(=O)[C@H](CCSC)NC(=O)[C@H](CCCNC(=N)N)NC(=O)[C@H](Cc2c[nH]c3ccccc23)NC(=O)[C@H](CCC(N)=O)NC(=O)[C@H](Cc2c[nH]c3ccccc23)NC(=O)[C@H](CCCNC(=N)N)NC(=O)[C@H](CCCNC(=N)N)NC(=O)[C@@H](NC(=O)[C@H](CCCCN)NC(=O)[C@@H](N)Cc2ccccc2)CSSC[C@@H](C(=O)N[C@H](C(=O)N[C@@H](CCCNC(=N)N)C(=O)N[C@@H](CCCNC(=N)N)C(=O)N[C@@H](C)C(=O)N[C@@H](Cc2ccccc2)C(=O)O)C(C)C)NC(=O)[C@H]([C@@H](C)O)NC1=O` [LfcinB, bovine lactoferricin, reference compound], the “Elution concentration from CS” value in data set [1] is recorded as 130 ± 9 mM NaCl. For the same compound, the “Elution concentration from HS” value in [3] came to 417 ± 4 mM NaCl. The IC50 at 30 min in [5] (MTT, 30 min incubation, serum-free, read-out: MRC-5 IC50) was above 160 µM. Also, in data set [6], the half-maximal inhibitory concentration (IC50) was above 500 µM.
